# Data taken from patent US20060183888A1 (priority 2004, published 2006).
# What was measured:
# [1] = NMR H/D exchange studies; format: physicochemical
# Experimental: Compound 7 (˜4 mg, ˜10 μmol) was dissolved in CD3OD (0.75 mL), and D2O (2 drops) was added. The reaction mixture was kept at rt and monitored by NMR (400 MHz). […] NaOD (30% w/w in D2O, 2 drops) was then added, and the solution monitored by NMR. […] After 25 h, the C5 proton peak completely disappeared.
# To rule out the possibility that the loss of the C5 proton peak was due to decomposition, the resulting mixture was evaporated at rt under reduce pressure, and the residue was redissolved in CH3OH and allowed to stir for 1 day. The mixture was then evaporated to dryness in vacuo, and redissolved in CD3OD. The NMR spectrum was quickly taken, and the C5 proton peak was again observed. As before, the C5 proton peak slowly disappeared over a 1-day period.
# To evaluate the importance of the imine bond on the acidity of the C5 proton, proline was dissolved in 0.75 mL CD3OD and 0.20 mL D2O and treated with […].
# [2] = system: E. coli BL21 (DE3) expressing pylT, pylS and mtmB1; test: Pyrrolysine-dependent amber suppression (mtmB1 UAG readthrough, anti-MtmB immunoblot); format: cell-based; conditions: 1 mM in the medium, induced 4 h
# Experimental: To test for amber suppression, overnight cultures were grown in Luria-Bertani broth (3 ml) with 100 μg ml^−1 ampicillin. Subsequently, 200 μl was inoculated into 1 ml fresh medium and grown to a D600 of 0.6. […] The mtmB1 gene products in equivalent amounts of lysates were then analysed by immunoblotting of a SDS 12.5% polyacrylamide gel with affinity-purified rabbit anti-MtmB antibody^6. The Rainbow Molecular Weight markers (Amersham Biosciences) were used.
# To test for amber suppression, overnight cultures of a strain bearing one of the plasmids were grown in LB broth (3 mL) with 100 ug/ml final ampicillin. Subsequently, 200 μl of each culture was inoculated into 1 ml of fresh LB medium with ampicillin, and grown to an A600 of approximately 0.6. […] The cultures were then centrifuged for 1 minute 16,000×g, and the cell pellets lysed in 125 mM Tris HCl, 4.6% SDS, 20% glycerol and 10% (v/v) β-mercaptoethanol, pH 6.8, at 90 degrees for 10 minutes.
# Extracts were electrophoresed in a 12.5% SDS-PAGE gel, then electroblotted overnight at 150 mA onto PVDF membrane (Bio-Rad Labs, Hercules, Calif.). The membrane was then incubated for 1 hour at room temperature with Western Breeze blocking solution (Invitrogen). […]
# [3] = target: T1, PylS-His6 (Methanosarcina barkeri, UniProt Q6WRH6)
# Experimental: The pyrophosphate exchange reaction was essentially performed following the method of Cole and Schimmel. All reactions were performed in duplicate at 37° C. The 100 to 200 μl reactions contained (unless noted) 0.3 to […] PylSHis6. […] The specific activity of the radiolabel was adjusted from 4 to 10 dpm/pmol). The concentration of protein was 0.3 to 1 μM. At specific times, 25 μl aliquots were removed and quenched in 500 μl of a stop solution containing 1.6% (w/v) activated acid-washed charcoal (Sigma Chemical Co., St. Louis, Mo.), 80 mM sodium tetrapyrophosphate, and 3.5% (v/v) perchloric acid. Samples were filtered through Whatman GF/C glass-fiber filters and then the filter was washed three times with 5 ml of 40 mM sodium tetrasodium pyrophosphate solution containing 1.7% perchloric acid (v/v) and once with 5 ml 100% ethanol. Filters were dried at 80° C. for 5 minutes then placed in 20 ml scintillation vials containing 10 ml of Ultima Gold F scintillation cocktail (PerkinElmer), shaken once, and counted in a liquid scintillation analyzer. Identical reactions without amino acid, ATP, or enzyme were also set up as negative controls in duplicate. […] One substrate was kept constant at a concentration higher than its respective apparent Km value.
# [4] = target: T1, PylS-His6; test: Aminoacylation of tRNACUA, acid-urea gel shift and northern blot; format: biochemical; set-up: made in house; host or cells: E. coli BL21 (DE3)
# Experimental: (§1) The reaction was terminated after 5-30 min at 37° C. with an equal volume of 0.3 M sodium acetate, 8 M urea pH 5.0. Charged and uncharged tRNA were separated by acid-urea acrylamide gel electrophoresis, blotted to nitrocellulose and probed with a 5μ ^32P-end-labelled, 72-base oligonucleotide complementary to tRNACUA. Radioactivity was analysed with a STORM Phosphorimager (Amersham Biosciences).
# Aminoacylation assay in acid-urea gels. […] Following incubation at 37° C. for 5 to 30 minutes, the reaction was terminated by addition of an equal volume of 2× loading dye (0.3 M sodium acetate, 8 M urea, pH 5.0) and charged and uncharged tRNA species analysed by acid-urea acrylamide gel electrophoresis following the methods outlined in Jester et al. Samples were electrophoresed in 14% polyacrylamide gels buffered with a 0.3 M sodium acetate-7 M urea solution, pH 5.0, at 50 volts and 4° C. for 24 hours. The same buffer without urea was used in the electrode chambers, and was replaced with fresh buffer every 6-8 hours. Finished gels were transblotted for 2 hours at 40 volts in 4° C. in a blotting solution of 10 mM Tris-acetate, 5 mM sodium acetate, and 0.5 mM EDTA, pH 8.0. The blot was then cross-linked by ultraviolet radiation (15000 μJ/cm2 per side) then prehybrized in 0.25 M sodium phosphate buffer, pH 7.2, and 5.7% SDS for at least 30 minutes. In order to detect charged and uncharged tRNACUA a 72 base oligonucleotide complementary to full length of tRNACUA was labeled with γ-^32P ATP and polynucleotide kinase. The probe was hybridized with the blot overnight at room temperature, then agitated at 22° C. for 5 minute in 10 mM sodium citrate, 150 mM NaCl, 1% SDS, pH 7.0, then agitated with two changes of 5 mM sodium citrate, 75 mM sodium chloride, 1% SDS, pH 7.0, for 5 minutes each. Radioactivity on the blot was imaged and analyzed using a STORM Phosphorimager (Amersham Biosciences).
# [5] = target: T2, His6-PylS (Methanosarcina barkeri, UniProt Q6WRH6); test: Gel-shift aminoacylation assay with N-terminally His-tagged PylS; format: biochemical
# T2 construct: His6 (hexahistidine) (N); made in house
# Experimental: as §1
# Aminoacylation assay in acid-urea gels. […] Following incubation at 37° C. for 5 to 30 minutes, the reaction was terminated by addition of an equal volume of 2× loading dye (0.3 M sodium acetate, 8 M urea, pH 5.0) and charged and uncharged tRNA species analysed by acid-urea acrylamide gel electrophoresis following the methods outlined in Jester et al. Samples were electrophoresed in 14% polyacrylamide gels buffered with a 0.3 M sodium acetate-7 M urea solution, pH 5.0, at 50 volts and 4° C. for 24 hours. The same buffer without urea was used in the electrode chambers, and was replaced with fresh buffer every 6-8 hours. Finished gels were transblotted for 2 hours at 40 volts in 4° C. in a blotting solution of 10 mM Tris-acetate, 5 mM sodium acetate, and 0.5 mM EDTA, pH 8.0. […] Radioactivity on the blot was imaged and analyzed using a STORM Phosphorimager (Amersham Biosciences).
# [6] = system: E. coli BW25141(DE3) with pylT, pylS and UAG-mutant uidA; format: cell-based
# Source text: In order to avoid interference by the residue uidA gene, we employed a strain with most ofuidA deleted, E. coli BW25141(DE3). This strain was transformed with pDLGUS, a variant of the pEC03 plasmid in which the mtmB1 gene was removed and the uidA gene introduced in its place.
# [7] = Stability studies to NaOH, LiOH, TFA (TLC); format: physicochemical
# Experimental: Stability Studies of Compound (8) to NaOH. NaOH (6 M, 20 μL, 0.12 mmol) was added to a solution of compound 8 (0.15 M, 100 μL, 0.015 mmol). The resulting mixture was allowed to react at rt over 3 days, during which the degradation of compound 8 was monitored by a ninhydrin TLC assay (CHCl3—MeOH—NH4OH(aq)=2:2:1).
# Stability Studies of Compound (8) to LiOH. Compound 8 (21.9 mg, 84 μmol) was dissolved in water (2 mL) and LiOH-H2O (84.5 mg, 2.0 mmol) was added. This mixture was allowed to react at rt. […] After 5 days, the solution was evaporated to dryness at rt, redissolved in MeOH (0.5 mL), and purified on chromatography silica gel.
# Stability Studies of Compound (8) to TFA. Compound 8 (21.7 mg, 0.083 mmol) was dissolved in MeOH (2 mL) and TFA (200 μL) was added. […] The mixture was allowed to react to completion for 2 days at rt. The resulting mixture was evaporated to dryness, dissolved in MeOH (0.5 mL), and subjected to chromatography on silica gel.
# T1 sequence (Q6WRH6 whole entry): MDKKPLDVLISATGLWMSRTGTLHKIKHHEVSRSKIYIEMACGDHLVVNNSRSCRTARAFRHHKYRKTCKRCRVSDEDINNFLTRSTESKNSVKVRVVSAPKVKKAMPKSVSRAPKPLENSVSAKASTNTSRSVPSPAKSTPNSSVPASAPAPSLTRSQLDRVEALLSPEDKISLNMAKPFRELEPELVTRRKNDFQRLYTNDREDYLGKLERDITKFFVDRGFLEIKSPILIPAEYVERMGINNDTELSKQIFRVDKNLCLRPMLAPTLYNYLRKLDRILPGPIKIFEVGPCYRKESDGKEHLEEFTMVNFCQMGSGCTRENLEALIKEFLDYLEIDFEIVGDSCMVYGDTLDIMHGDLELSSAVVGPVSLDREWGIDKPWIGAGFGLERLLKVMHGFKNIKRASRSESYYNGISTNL
# T2 sequence (Q6WRH6 whole entry): as above
smiles,measurement,setting,value
"O=C(O)[C@@H]1CCCN1 [proline, reference compound]",H/D exchange of protons on ring carbons,"[1]; CD3OD/D2O with base, rt, 1 day",No evidence for H/D exchange
"NCCCC[C@H](N)C(=O)O [lysine, reference compound]",UAG readthrough of mtmB1 (50-kDa MtmB),[2],could not be replaced
same,isotopic exchange into ATP above background,"[3]; 1 mM, up to 30 min",no detectable isotopic exchange
same,aminoacylation of tRNAIYS in the M. acetivorans tRNA pool,[4],does not aminoacylate
same,formation of charged tRNACUA species,"[4]; amino acids at 50 μM, cellular tRNA pool",not formed
same,tRNA synthetase activity,[5],no lysyl-tRNA synthetase activity was detectable
"C[C@@H]1CC=N[C@H]1C(=O)NCCCC[C@H](N)C(=O)O [pyrrolysine, L-pyrrolysine]",UAG readthrough of mtmB1 (50-kDa MtmB),[2],large amounts of 50-kDa MtmB
same,apparent Vmax,[3]; exchange reaction,120 nmol min^−1 per mg PylS
same,increase of beta-glucuronidase activity,[6]; 1 mM synthetic pyrrolysine versus absence of pyrrolysine,approximately 100 fold
same,beta-glucuronidase activity,"[6]; induced with IPTG, 1 mM synthetic pyrrolysine",4. umol/min·mg protein
same,aminoacylation of tRNAIYS in the M. acetivorans tRNA pool,[4],does not aminoacylate
same,maximal conversion of deacylated tRNACUA to charged species,"[4]; deacylated M. acetivorans cellular tRNA pool, with ATP and PylS-His6",50%
same,maximum of tRNACUA transcribed in vitro aminoacylated,[4]; in vitro transcribed tRNACUA,43%
same,conversion under acidic conditions,[7]; acidic conditions,converted to its enamine form
same,tRNA synthetase activity,[5],does have pyrrolysyl-tRNA synthetase activity
Nc1ncnc2c1ncn2[C@@H]1O[C@H](COP(=O)(O)OP(=O)(O)OP(=O)(O)O)[C@@H](O)[C@H]1O [ATP],Km,"[3]; read-out: apparent Km, 37° C., pH 7.2",2 µM
"C[C@@H]1CC=N[C@H]1C(=O)NCCCC[C@H](N)C(=O)[O-].[Li+] [Compound 8, L-Pyrrolysine lithium salt]",degradation by LiOH (TLC),"[7]; LiOH in water, rt, after 24 h",two new bands
same,degradation by NaOH (ninhydrin TLC),"[7]; NaOH, rt, over 3 days",One new band
same,degradation by TFA (TLC),"[7]; TFA in MeOH, after 1 h, complete in 2 days at rt",one new band
"COC(=O)[C@H](CCCCNC(=O)[C@@H]1N=CC[C@H]1C)NC(=O)C(F)(F)F [Compound 7, Nα-Trifluoroacetyl-L-pyrrolysine methyl ester]",change in NMR,"[1]; CD3OD with D2O, rt, 3-day period",No change was observed
same,time to complete disappearance of the C5 proton peak (H/D exchange),"[1]; NaOD added, CD3OD/D2O",25 h
